Reference: US20120009183A1, “METHOD FOR TREATMENT OF PANCREATITIS” (Ore Pharmaceuticals Inc., priority 2007, published 2012)

How the values were obtained:
[1] = system: NF-κB dependent transcription; assay: In vivo basal NF-κB dependent transcription in NF-κB::Luc reporter mice, abdominal imaging; settings: 300 mg/kg s.c., 4 hours post administration; p<0.01
From the text: GL1001 was further tested for in vivo anti-inflammatory activity by examining its effects on basal levels of NF-κB dependent transcription in mice engineered in the germline with a construct containing an NF-κB enhancer linked to a luciferase gene (i.e., NF-κB::Luc mice), such that this NF-κB reporter construct is present in all cells of the mice.
More particularly, transgenic NF-κB::Luc mice were generated using three NF-κB response elements from the Igκ light chain promoter fused to a firefly luciferase gene as described by Carlsen et al. (2002) J. Immunol. 168:1441-1446. Pronuclear microinjection of purified construct DNA was used to generate transgenic founders in the C57BL/6 XCBA/J background. Founders were subsequently back crossed to the C57BL/6 albino background. […] Signal data were also quantitated and archived using the Living Image® software. Photons of light were quantitated using an oval region of interest (ROI) of varying sizes depending on the procedure, as described further below.
To test for in vivo effects of GL1001 on basal levels of NF-κB dependent transcription, male NF-κB::Luc mice were subjected to quantitative in vivo imaging of the abdominal area (using a fixed ROI of 2.76×3.7 cm) as described above, immediately before, and at 2, […]

[2] = system: NF-κB dependent transcription; assay: TNFα-induced activation of NF-κB in recombinant HeLa reporter cells (luciferase); format: cell-based; settings: TNFα 20 ng/ml, 6 hours, HeLa NF-κB-luc
From the text: To test the ACE2 inhibitor GL1001 for anti-inflammatory activity relevant to gastrointestinal inflammatory disease, more particularly pancreatitis, effects of the compound on activation of NF-κB dependent transcription by TNFα were examined in recombinant reporter cells containing a construct with a luciferase reporter gene under control of NF-κB dependent regulatory sequences, thereby allowing detection of NF-κB dependent transcription by measuring reporter enzyme using a conventional luciferase activity assay based on detection of generated light.
In particular, HeLa cells (American Type Culture Collection) were grown in Dulbecco's modified Eagles medium (DMEM) supplemented with 10% fetal calf serum and transiently transfected with an NF-κB-luc construct (Stratagene, Inc.), as follows (with all incubation steps at 37 C unless otherwise indicated). Cells were seeded and grown to about 70% confluency in a 10 cm cell culture dish. Plasmid DNA (10 μg) was added to 1 ml serum free DMEM media in a tube. Fugene 6 transfection reagent (30 μl) (Roche) was then pipetted slowly into the tube and the contents were gently mixed by inversion. The mixture was incubated at room temperature for 15 minutes and then added dropwise to cells in one 10 cm dish. […] Bioluminescence was then measured using a Veritas luminometer (Turner BioSystems). […]

[3] = system: NF-κB dependent transcription; assay: LPS-induced NF-κB dependent transcription in extracted organs of NF-κB::Luc mice (luciferase assay); format: in vivo; settings: 30 mg/kg GL1001 + 0.5 mg/kg LPS vs LPS alone; stomach
From the text: For luciferase assays, organs were extracted and snap frozen in liquid nitrogen. All tissue samples were placed in lysis buffer with inhibitors (Passive Lysis Buffer (Promega) and Complete Mini Protease Inhibitor Cocktail (Roche, Indianapolis, Ind.)), and were homogenized using a tissue homogenizer (Handishear, Hand-held homogenizer, VirTis, Gardiner, N.Y.). Tissue homogenates were centrifuged and clarified lysates were used for luminometer assays and western blots. For the luminometer assays, Luciferase Assay Substrate (Luciferase Assay System, Promega) was prepared as indicated by the manufacturer and placed in disposable cuvettes. […] Background luminescence readings were obtained and the background readings were subtracted from the luminescent data. Protein concentrations were determined using the BCA Protein Assay Kit (Pierce, Rockford, Ill.) following the manufacturer's protocols and analyzed using a VERSAmax tuneable microplate reader and associated Softmax Pro version 3.1.2 software (Molecular Devices, Sunnyvale Calif.). The luminescence for each of the protein lysates was calculated as arbitrary units of light per microgram of protein. […]
GL1001 was further tested for in vivo anti-inflammatory activity by examining its effects on bacterial LPS induced NF-κB dependent transcription, in NF-κB::Luc mice. […] Luciferase signal was quantitated from several regions of interest. […]

[4] = system: activator protein-1 (AP-1); assay: Basal in vivo reporter luciferase expression in AP-1::Luc mice; settings: data not shown
[5] = system: spontaneous CP in male WBN/Kob rats; settings: Kuno et al. (2003); cited from earlier work
[6] = system: acute pancreatitis induced by cerulein; settings: Tsang et al. (2004); cited from earlier work

## CC(C)C[C@H](N[C@@H](Cc1cncn1Cc1cc(Cl)cc(Cl)c1)C(=O)O)C(=O)O [GL1001, (S,S)-2-[1-carboxy-2-[3-(3,5-dichlorobenzyl)-3H-imidazol-4-yl]-ethylamino]-4-methylpentanoic acid]
[1]
  inhibition of basal in vivo NF-κB dependent transcription in abdominal ROI: over 40%
[2]; at 8 nM
  inhibition of TNFα induced activation of NF-κB dependent transcription: over 80%
[2]; at 0.2 μM
  maximal inhibition of TNFα induced activation of NF-κB dependent transcription: over 95%
[3]
  reduction of LPS induced NF-κB-dependent transcription in stomachs: about 37 fold
[4]
  effect on basal in vivo reporter luciferase expression: no significant effect

## NCCCC[C@H](N[C@@H](CCc1ccccc1)C(=O)O)C(=O)N1CCC[C@H]1C(=O)O [lisinopril]
[5]
  pancreatic fibrosis in animal model of CP: attenuated

## CCCCc1nc(Cl)c(CO)n1Cc1ccc(-c2ccccc2-c2nn[nH]n2)cc1 [losartan]
[6]
  severity of acute pancreatitis induced by cerulein: markedly reduced
